# Test results: US20190135787A1, “PYRIMIDINE COMPOSITIONS, ULTRA-PURE COMPOSITIONS AND SALTS THEREOF, METHODS OF MAKING THE SAME, AND METHODS OF USING THE SAME FOR TREATING HISTAMINE H4 RECEPTOR (H4) MEDIATED DISEASES AND CONDITIONS” (Novartis AG, priority 2015, published 2019)
# Columns and labels:
# [1] = Salt screen: physical stability under accelerated aging conditions (HT-XRPD); format: physicochemical; settings: 40° C., 75% RH, two days, code+number = crystalline salt form, 0 = crystalline counter ion itself
# Method: XRPD patterns were obtained using the Crystallics T2 high-throughput XRPD set-up. The plates were mounted on a Bruker General Area Detector Diffraction System (GADDS) equipped with a VANTEC-500 gas area detector corrected for intensity and geometric variations. The calibration of the measurement accuracy (peaks position) was performed using NIST SRM1976 standard (Corundum).
# Data collection was carried out at room temperature using monochromatic CuKα radiation in the 2θ region between 1.5° and 41.5°, which is the most distinctive part of the XRPD pattern. The diffraction pattern of each well was collected in two 20 ranges (1.5°≤2θ≤21.5° for the first frame, and 19.5°≤2θ≤41.5° for the second) with an exposure time of 90s for each frame. No background subtraction or curve smoothing was applied to the XRPD patterns.
# Approximately 175 mg of N^4-(cyclopropylmethyl)-6-[(3R)-3-(methylamino)pyrrolidin-1-yl]pyrimidine-2,4-diamine in 1-Butanol and Dichloromethane were combined with a slight molar excess of either solid or liquid counter ion. Samples were incubated at RT. After 5 days the solids were collected, dried under vacuum and analyzed by HT-XRPD (XRPD 1).
# Subsequently, the solids were exposed to accelerated aging conditions (40° C., 75% RH) for two days and re-analyzed by HT-XRPD (XRPD 2). Crystalline salts (polymorphs) are indicated with the abbreviated counter ion code and a number (1, 2, etc.). The number zero (0) indicates the crystalline counter ion itself.
# [2] = Dynamic vapor sorption (DVS); format: physicochemical; settings: 25° C.
# Method: Moisture sorption isotherms were collected on a DVS-1 system from Surface Measurement Systems (London, UK). Typical sample size is between 5 and 10 mg of solid material. The relative humidity was cycled between 40% to 0% (desorption), up to 95% (sorption), back to 0% RH (desorption) and up to 95% RH (sorption) in steps of 10% at a constant temperature of 25° C. with an initial stabilizing step at 40% RH for 6 hours.
# [3] = test system: adult subjects with moderate to severe atopic dermatitis; experiment: Phase 2a study in moderate to severe atopic dermatitis; format: in vivo, human; settings: 8 weeks
# Method: Following the phase 1 trials, a phase 2a trial was conducted to evaluate the efficacy of 8 weeks of treatment with 30 mg ZPL-389 administered once daily in adult subject with moderate to severe atopic dermatitis. The study was also designed to assess the safety and tolerability of ZPL-389 in adult subjects with moderate to severe atopic dermatitis.
# This study was a randomized, double blind, placebo controlled, parallel group study of subjects having a pruritus Numerical Rating Scale (NRS) of ≥5 (0-10 scale), an Investigator's Global Assessment (IGA)≥3 (0-3 scale), and moderate-severe AD Eczema Area and Severity Index (EAST)≥12 and ≤48 (0-72 scale). In addition, subjective patient reported outcome instruments include: Ziarco Itch Diary (Electronic) Pruritus; 5D Pruritus Scale; Dermatology Life Quality Index (DLQI); and Patient Global Impression of Change (PGIG).
# Each subject (aged 18-65 years) had one or more screening visits to confirm suitability to enter the study. 98 subjects with moderate to severe atopic dermatitis were randomized 2:1 to receive orally either 30 mg ZPL-389 or placebo once daily for eight weeks (56 days).
# Efficacy endpoints for the trial include the following: • change from baseline in NRS for pruritus (worst itch) over 24 hours; • change from baseline in daytime NRS for pruritus (worst itch); • change from baseline in night time NRS for pruritus (worst itch); • change from baseline in NRS for sleep disturbance; • change from baseline in duration of itching; • change from baseline in verbal rating score for pruritus; • change from baseline in EASI score; • change from baseline in SCORAD score; • IGA score; • amount of rescue medication use; and/or • PGIC.
# [4] = Phase 1 trials, single and multiple ascending doses; format: in vivo, human
# Method: In phase 1 trials, 62 subjects were treated with ZPL-389.
# mild asthmatics = settings: 36 mg, two single oral doses 12 hours apart; cited from earlier work
Molecule,XRPD2: solid form after accelerated aging ([1]; solid from 1-butanol),XRPD2: solid form after accelerated aging ([1]; solid from dichloromethane),further results
O=C(O)C(O)c1ccccc1 (racemic) [DL-Mandelic acid],Amorphous,Amorphous,–
CC(=O)Nc1ccc(C(=O)O)cc1 [4-acetamido-Benzoic acid],ABen1 + ABen0,ABen1 + ABen0,–
O=C(O)[C@H](O)[C@@H](O)C(=O)O [(+)-L-Tartaric acid],Amorphous,Amorphous,–
CC(=O)O [Acetic acid],Amorphous,Amorphous,–
O=C[C@H](O)[C@@H](O)[C@H](O)[C@H](O)C(=O)O [D-Glucuronic acid],Amorphous,Amorphous,–
"O=S(=O)(O)CCS(=O)(=O)O [Ethane-1,2-disulfonic acid]",Eds1 + Eds2,Eds1,–
"CN[C@@H]1CCN(c2cc(NCC3CC3)nc(N)n2)C1.O.O.O=C(O)C(O)C(O)C(=O)O [Example 4, N^4-(cyclopropylmethyl)-6-[(3R)-3-(methylamino)pyrrolidin-1-yl]pyrimidine-2,4-diamine tartrate dihydrate]",–,–,total mass uptake ([2]; 20-30% RH): 6.9%; RH at which the dehydration step occurs during desorption [2]: below 10 % RH; water uptake (mass uptake) ([2]; between 0-20% RH): 1.9%; weight ([2]; between 30-90% RH): remains stable
O=C(O)[C@H](O)[C@@H](O)[C@H](O)[C@H](O)CO [Gluconic acid],Amorphous,Amorphous,–
O=C(O)CCCC(=O)O [Glutaric acid],Glut1,Glut1,–
Cl [Hydrochloric acid],Amorphous,Amorphous,–
O=S(=O)(O)O [Sulfuric acid],Amorphous,Amorphous,–
"CN[C@@H]1CCN(c2cc(NCC3CC3)nc(N)n2)C1 [ZPL-389, N^4-(cyclopropylmethyl)-6-[(3R)-3-(methylamino)pyrrolidin-1-yl]pyrimidine-2,4-diamine]",–,–,"Treatment Emergent Adverse Events (TEAE) vs placebo ([3]; 30 mg once daily): no differences; rescue medication use vs placebo ([3]; 30 mg once daily): lower; tolerability / safety profile ([3]; 30 mg once daily, comparable to placebo): well tolerated; pruritus ([3]; 30 mg once daily, statistically significant compared to baseline): markedly reduced; IGA reduction ([3]; 30 mg orally once daily, placebo 25%): 36%; pharmacokinetics, dose dependence ([4]; phase 1 trials): dose-proportional pharmacokinetics; majority of observed adverse events ([4]; single doses 0.01-48 mg, 5, 15 and 50 mg once daily for 14 days): mild, transient, and non-dose related; tolerability ([4]; single doses 0.01-48 mg, 5, 15 and 50 mg once daily for 14 days, 62 subjects): safely tolerated; efficacy in mild asthma (mild asthmatics): no efficacy was observed"
(−)-L-Malic acid,Amorphous,Amorphous,–
Benzenesulfonic acid,Amorphous,Amorphous,–
Benzoic acid,Ben1 + Ben2 plus,Ben1 + Ben2 plus,–
Citric acid,Amorphous,Amorphous,–
Ethanesulfonic acid,Amorphous,Amorphous,–

# Now from value to molecule, other results behind:
XRPD2: solid form after accelerated aging ([1]; solid from 1-butanol),XRPD2: solid form after accelerated aging ([1]; solid from dichloromethane),Molecule,further results
Gen2,Gen2,O=C(O)c1cc(O)ccc1O [Gentisic acid],–
Gltm0,Amorphous,N[C@@H](CCC(=O)O)C(=O)O [Glutamic acid],–
Amorphous,Amorphous,O=C(O)CNC(=O)c1ccccc1 [Hippuric acid],–
Amorphous,Amorphous,Br [Hydrobromic acid],–
Asp0,Amorphous,N[C@@H](CC(=O)O)C(=O)O [L-Aspartic acid],–
Amorphous,Amorphous,CS(=O)(=O)O [Methanesulfonic acid],–
Nap1 + Nap0,Amorphous,O=S(=O)(O)c1ccc2ccccc2c1 [Naphtalene-2-sulfonic acid],–
Pho2 plus,Pho3,O=P(O)(O)O [Phosphoric acid],–
Sal1 plus,Amorphous,O=C(O)c1ccccc1O [Salicylic acid],–
Ste0 + Ste1,Ste0 + Ste1,CCCCCCCCCCCCCCCCCC(=O)O [Stearic acid],–
Amorphous,Fum0 + Fum3,Fumaric acid,–
Amorphous,Amorphous,Lactic acid,–
Amorphous,Amorphous,Maleic acid,–
Oxa3,Oxa3,Oxalic acid,–
